Here are results for 27 compounds from patent US9409884B2 (Rigel Pharmaceuticals, Inc., priority 2012, dated 2016).

The structures appear in SMILES notation.

The assay has as its target AMPK. Description: AMPK activation, enzyme-linked immunosorbent assay. Conditions: Table 14, compounds of Table 7. The assay is classed as biochemical. Put shortly:
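Read-out: ELISA, used to detect compound-driven activation of AMPK.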
What is called EC50 is the concentration at which the effect is half-maximal. The low end stands for greater potency, the high end for weaker potency. `COc1ccc(CN2CCC(NC(=O)c3ccc(C(=O)N4CCC(C(=O)c5ccc(OC)cc5)CC4)nc3)[C@@H](F)C2)cc1` (stereo partly drawn) [Compound 7-21, N-((3,4-trans)-3-fluoro-1-(4-methoxybenzyl)piperidin-4-yl)-6-(4-(4-methoxybenzoyl)piperidine-1-carbonyl)nicotinamide]: the EC50 was less than 1000 nM. The same measure for `Cc1nc2cc(OC3CCN(C(=O)c4ccc(C(=O)NC5CCN(Cc6ccc(C#N)cc6)CC5)cn4)CC3)ccc2s1` [Compound 7-22, N-(1-(4-cyanobenzyl)piperidin-4-yl)-6-(4-(2-methylbenzo[d]thiazol-5-yloxy)piperidine-1-carbonyl)nicotinamide]: less than 1000 nM; for `Cc1nc2cc(OC3CCN(C(=O)c4ccc(C(=O)NC5CCN(Cc6ccc(OC(F)(F)F)cc6)CC5)cn4)CC3)ccc2s1` [Compound 7-23, 6-(4-(2-methylbenzo[d]thiazol-5-yloxy)piperidine-1-carbonyl)-N-(1-(4-(trifluoromethoxy)benzyl)piperidin-4-yl)nicotinamide]: less than 1000 nM; for `COc1ccc(CN2CCC(NC(=O)c3ccc(C(=O)N4CCC(Oc5ccc6sc(C)nc6c5)CC4)nc3)CC2)cc1` [Compound 7-24, N-(1-(4-methoxybenzyl)piperidin-4-yl)-6-(4-(2-methylbenzo[d]thiazol-5-yloxy)piperidine-1-carbonyl)nicotinamide]: less than 1000 nM. With `Cc1nc2cc(OC3CCN(C(=O)c4ccc(C(=O)Nc5ccc(Oc6ccc(C#N)cc6)nc5)cn4)CC3)ccc2s1` [Compound 7-25, N-(6-(4-cyanophenoxy)pyridin-3-yl)-6-(4-(2-methylbenzo[d]thiazol-5-yloxy)piperidine-1-carbonyl)nicotinamide] the figure was less than 1000 nM; with `COc1ccc(CN2CCC(NC(=O)c3ccc(C(=O)N4CCC(C(=O)c5ccc(OC)cc5)CC4)nc3)[C@H](F)C2)cc1` (stereo partly drawn) [Compound 7-26, N-((3,4-trans)-3-fluoro-1-(4-methoxybenzyl)piperidin-4-yl)-6-(4-(4-methoxybenzoyl)piperidine-1-carbonyl)nicotinamide], less than 1000 nM; with `COc1ccc(C(=O)C2CCN(C(=O)c3ccc(C(=O)NC4CCN(Cc5cccc(C#N)c5)C[C@@H]4F)cn3)CC2)cc1` (stereo partly drawn) [Compound 7-27, N-((3,4-trans)-1-(3-cyanobenzyl)-3-fluoropiperidin-4-yl)-6-(4-(4-methoxybenzoyl)piperidine-1-carbonyl)nicotinamide], less than 1000 nM.

Take `COc1ccc(C(=O)C2CCN(C(=O)c3ccc(C(=O)NC4CCN(Cc5ccc(C(F)(F)F)cc5)C[C@@H]4F)cn3)CC2)cc1` (stereo partly drawn) [Compound 7-28, N-((3,4-trans)-3-fluoro-1-(4-(trifluoromethyl)benzyl)piperidin-4-yl)-6-(4-(4-methoxybenzoyl)piperidine-1-carbonyl)nicotinamide]: the EC50 was less than 1000 nM.

`COc1ccc(C(=O)C2CCN(C(=O)c3ccc(C(=O)NC4CCN(Cc5cccc(C#N)c5)C[C@H]4F)cn3)CC2)cc1` (stereo partly drawn) [Compound 7-29, N-((3,4-trans)-1-(3-cyanobenzyl)-3-fluoropiperidin-4-yl)-6-(4-(4-methoxybenzoyl)piperidine-1-carbonyl)nicotinamide] had an EC50 of less than 1000 nM. The same measure for `COc1ccc(C(=O)C2CCN(C(=O)c3ccc(C(=O)NC4CCN(Cc5cccc(OC)c5)C[C@H]4F)cn3)CC2)cc1` (stereo partly drawn) [Compound 7-30, N-((3,4-trans)-3-fluoro-1-(3-methoxybenzyl)piperidin-4-yl)-6-(4-(4-methoxybenzoyl)piperidine-1-carbonyl)nicotinamide]: less than 1000 nM. The same measure for `COc1ccc(C(=O)C2CCN(C(=O)c3ccc(C(=O)NC4CCN(Cc5cccc(C(F)(F)F)c5)C[C@H]4F)cn3)CC2)cc1` (stereo partly drawn) [Compound 7-32, N-((3,4-trans)-3-fluoro-1-(3-(trifluoromethyl)benzyl)piperidin-4-yl)-6-(4-(4-methoxybenzoyl)piperidine-1-carbonyl)nicotinamide]: less than 1000 nM; for `COc1ccc(C(=O)C2CCN(C(=O)c3ccc(C(=O)NC4CCN(Cc5ccc(OC(F)(F)F)cc5)C[C@H]4F)cn3)CC2)cc1` (stereo partly drawn) [Compound 7-33, (3,4-trans)-3-fluoro-4-(6-(4-(4-methoxybenzoyl)piperidine-1-carbonyl)nicotinamido)-1-(4-(trifluoromethoxy)benzyl) piperidinium]: less than 1000 nM; for `COc1ccc(C(=O)C2CCN(C(=O)c3ccc(C(=O)NC4CCN(Cc5cccc(C(F)(F)F)c5)C[C@@H]4F)cn3)CC2)cc1` (stereo partly drawn) [Compound 7-34, N-((3,4-trans)-3-fluoro-1-(3-(trifluoromethyl)benzyl)piperidin-4-yl)-6-(4-(4-methoxybenzoyl)piperidine-1-carbonyl)nicotinamide]: less than 1000 nM. For the compound `COc1ccc(C(=O)C2CCN(C(=O)c3ccc(C(=O)NC4CCN(Cc5ccc(F)c(C)c5)C[C@H]4F)cn3)CC2)cc1` (stereo partly drawn) [Compound 7-37, N-((3,4-trans)-3-fluoro-1-(4-fluoro-3-methylbenzyl)piperidin-4-yl)-6-(4-(4-methoxybenzoyl)piperidine-1-carbonyl)nicotinamide], the EC50 is less than 1000 nM.

For the compound `Cn1cnc2cc(OC3CCN(C(=O)c4ccc(C(=O)NC5CCN(Cc6ccc(C#N)cc6)CC5)cn4)CC3)ccc21` [Compound 7-38, N-(1-(4-cyanobenzyl)piperidin-4-yl)-6-(4-(1-methyl-1H-benzo[d]imidazol-5-yloxy)piperidine-1-carbonyl)nicotinamide], the EC50 is 1000 to 10000 nM. With `COc1ccc(CN2CCC(NC(=O)c3ccc(C(=O)N4CCC(Oc5ccc6c(c5)ncn6C)CC4)nc3)CC2)cc1` [Compound 7-40, N-(1-(4-methoxybenzyl)piperidin-4-yl)-6-(4-(1-methyl-1H-benzo[d]imidazol-5-yloxy)piperidine-1-carbonyl)nicotinamide] the figure was 1000 to 10000 nM. `COc1ccc(C(=O)C2CCN(C(=O)c3ccc(C(=O)NC4CCN(Cc5ccc(-n6cccn6)cc5)C[C@H]4F)cn3)CC2)cc1` (stereo partly drawn) [Compound 7-41, N-((3,4-trans)-1-(4-(1H-pyrazol-1-yl)benzyl)-3-fluoropiperidin-4-yl)-6-(4-(4-methoxybenzoyl)piperidine-1-carbonyl)nicotinamide] had an EC50 of less than 1000 nM. With `COc1ccc(C(=O)C2CCN(C(=O)c3ccc(C(=O)NC4CCN(Cc5ccc(-n6ccnc6)cc5)C[C@H]4F)cn3)CC2)cc1` (stereo partly drawn) [Compound 7-42, N-((3,4-trans)-1-(4-(1H-imidazol-1-yl)benzyl)-3-fluoropiperidin-4-yl)-6-(4-(4-methoxybenzoyl)piperidine-1-carbonyl)nicotinamide] the figure was 1000 to 10000 nM; with `COc1ccc(C(=O)C2CCN(C(=O)c3ccc(C(=O)NC4CCN(Cc5ccc(F)c(OC)c5)C[C@H]4F)cn3)CC2)cc1` (stereo partly drawn) [Compound 7-43, N-((3,4-trans)-3-fluoro-1-(4-fluoro-3-methoxybenzyl)piperidin-4-yl)-6-(4-(4-methoxybenzoyl)piperidine-1-carbonyl)nicotinamide], less than 1000 nM; with `COc1ccc(C(=O)C2CCN(C(=O)c3ccc(C(=O)NC4CCN(Cc5ccc(OC)c(F)c5)C[C@H]4F)cn3)CC2)cc1` (stereo partly drawn) [Compound 7-44, N-((3,4-trans)-3-fluoro-1-(3-fluoro-4-methoxybenzyl)piperidin-4-yl)-6-(4-(4-methoxybenzoyl)piperidine-1-carbonyl)nicotinamide], less than 1000 nM. With `COc1ccc(C(=O)C2CCN(C(=O)c3ccc(C(=O)NC4CCN(Cc5ccc(F)c(C(F)(F)F)c5)C[C@H]4F)cn3)CC2)cc1` (stereo partly drawn) [Compound 7-45, N-((3,4-trans)-3-fluoro-1-(4-fluoro-3-(trifluoromethyl)benzyl)piperidin-4-yl)-6-(4-(4-methoxybenzoyl)piperidine-1-carbonyl)nicotinamide] the figure was less than 1000 nM. `CC(=O)c1ccc(Oc2ccc(NC(=O)c3ccc(C(=O)N4CCC(Oc5ccc6c(c5)ncn6C)CC4)nc3)cn2)cc1` [Compound 7-46, N-(6-(4-acetylphenoxy)pyridin-3-yl)-6-(4-(1-methyl-1H-benzo[d]imidazol-5-yloxy)piperidine-1-carbonyl)nicotinamide]: the EC50 is 1000 to 10000 nM. The same measure for `Cc1cc(OC2CCN(C(=O)c3ccc(C(=O)NC4CCN(Cc5ccc(OC(F)(F)F)cc5)C[C@H]4F)cn3)CC2)ccc1S(C)(=O)=O` (stereo partly drawn) [Compound 7-47, N-((3,4-trans)-3-fluoro-1-(4-(trifluoromethoxy)benzyl)piperidin-4-yl)-6-(4-(3-methyl-4-(methylsulfonyl)phenoxy)piperidine-1-carbonyl) nicotinamide]: less than 1000 nM; for `O=C(NC1CCN(Cc2ccc(OC(F)(F)F)cc2)C[C@H]1F)c1ccc(C(=O)N2CCC(Oc3ccc(S(=O)(=O)C4CC4)cc3)CC2)nc1` (stereo partly drawn) [Compound 7-48, 6-(4-(4-(cyclopropylsulfonyl)phenoxy)piperidine-1-carbonyl)-N-((3,4- trans)-3-fluoro-1-(4-(trifluoromethoxy)benzyl)piperidin-4-yl)nicotinamide]: 1000 to 10000 nM. Turning to `CS(=O)(=O)c1ccc(OC2CCN(C(=O)c3ccc(C(=O)NC4CCN(Cc5ccc(OC(F)(F)F)cc5)C[C@H]4F)cn3)CC2)cc1` (stereo partly drawn) [Compound 7-49, N-((3,4-trans)-3-fluoro-1-(4-(trifluoromethoxy)benzyl)piperidin-4-yl)-6-(4-(4-(methylsulfonyl)phenoxy)piperidine-1-carbonyl) nicotmamide], the EC50 lay within 1000 to 10000 nM. With `Cc1nc2cc(OC3CCN(C(=O)c4ccc(C(=O)NC5CCN(Cc6ccc(OC(F)(F)F)cc6)C[C@H]5F)cn4)CC3)ccc2s1` (stereo partly drawn) [Compound 7-51, N-((3,4-trans)-3-fluoro-1-(4-(trifluoromethoxy)benzyl)piperidin-4-yl)-6-(4-(2-methylbenzo[d]thiazol-5-yloxy)piperidine-1-carbonyl)nicotinamide] the figure was less than 1000 nM.

With `CC(=O)c1ccc(OC2CCN(C(=O)c3ccc(C(=O)NC4CCN(Cc5ccc(OC(F)(F)F)cc5)C[C@H]4F)cn3)CC2)cc1` (stereo partly drawn) [Compound 7-52, 6-(4-(4-acetylphenoxy)piperidine-1-carbonyl)-N-((3,4-trans)-3-fluoro-1-(4-(trifluoromethoxy)benzyl)piperidin-4-yl)nicotinamide], the EC50 was less than 1000 nM.
